Experimental findings from patent publication US20060252683A1, “Preparation of a peptide compound (SYRAPRO-2000) and its use for the activation of protein phosphatase-2A1 enzyme” (priority 2005, published 2006) are described below.

Structures are written as SMILES.

The target of one assay is T1, protein phosphatase-1 (Oryctolagus cuniculus, UniProt P62139).
T1 construct: Protein phosphatase-1 was purified from rabbit skeletal muscle; from tissue; host or cells: rabbit skeletal muscle
Briefly: Protein phosphatase-1 assay. The class given is biochemical, rabbit. The settings on record: various concentrations. On the procedure: (§1) Protein phosphatase-1 (squares), protein phosphatase-2A1 (circles), protein phosphatase-2B (triangles) and protein phosphatase-2C (stars) were assayed in the presence of various concentrations of HIV-1 Vpr^71-96. 100 percent protein phosphatase activity is equivalent to 0.005 unit. Similar results were obtained in 3 independent experiments.
(§2) ^32P-labeled phosphorylase a was prepared by phosphorylation of phosphorylase b with phosphorylase kinase as described in (Cohen 1988). ^32P-labeled casein was prepared by phosphorylation of casein with protein kinase A as described in (Tung 1986). Protein phosphatase-1 was purified from rabbit skeletal muscle as described in (Cohen 1988). Protein phosphatase-1 inhibitor-2 was purified from rabbit skeletal muscle as described in (Yang 1981). Protein phosphatase-2A0 and protein phosphatase-2A1 from pig brain and from pig liver were purified as described in (Tung 1985). Protein phosphatase-2A0 and protein phosphatase-2A1 from pig adipose tissue were highly purified by successive chromatography of pig subcutaneous adipose tissue extracts on DEAE Sepharose, Poly-L-lysine Agarose, Sephacryl S-300 HR and thiophosphorylase-a-Sepharose-4B as described in (Tung 1985). Protein phosphatase-2B was purified from pig brain as described in (Tung 1986). […]

For the next assay, the target named is protein phosphatase-2A1 (Homo sapiens, UniProt P67775). Briefly: Assay of purified protein phosphatase-2A1 in vitro with 32P-labeled phosphorylase a as substrate. The class given is biochemical. Details: Protein phosphatase-2A1 purified from CD^4+ T cells as described in materials and method; endogenous in cells; host or cells: Jurkat cells; enzyme purified by DEAE Sepharose, Sephacryl S-300 HR and poly-L-lysine Agarose. The settings on record: purified enzyme from Jurkat cells, in vitro. On the procedure:
Protein phosphatase-2A1 purified from CD^4+ T cells as described in materials and method was assayed in the presence of various concentrations of SYRAPRO-2000. 100 percent protein phosphatase-2A1 activity is equivalent to 0.005 unit. Similar result were obtained in 3 independent experiments.
The effect of synthesized SYRAPRO-2000 on purified protein phosphatase-2A1 can be determined in vitro. Protein phosphatase-2A1 can be assayed using ^32P-labeled phosphorylase a as substrate in the presence of various concentrations of SYRAPRO-2000. Protein phosphatase-2A1 is activated in the presence of SYRAPRO-2000.
Protein phosphatase-1 was assayed as described in (Cohen 1988). Protein phosphatase-2B was assayed as described in (Tung 1986). Protein phosphatase-2C was assayed as described in (Tung 1986) except Ca^2+ and calmodulin were omitted. The assay of protein phosphatases-2A1 consisted of 0.02 ml of enzyme solution in 50 mM Imidazole-Cl pH 7.2, 0.2 mM EGTA, 0.1% (v/v) 2-mercaptoethanol and 1 mg/ml bovine serum albumin (Assay Buffer), 0.01 ml of inhibitor-2 at 600 nM in Assay Buffer, 0.01 ml of protamine at 60 μg/ml in Assay Buffer or 0.01 ml of SYRAPRO-2000 at different concentrations in Assay Buffer or 0.01 ml of Assay Buffer alone, 0.02 ml of ^32P-labeled phosphorylase a at 3 mg/ml in Assay Buffer containing 15 mM caffeine. The assay components were preincubated for 10 minutes prior to initiating the reaction with ^32P-labeled phosphorylase a. One unit of protein phosphatase activity is that amount of enzyme which catalyzes the release of 1 nmol of phosphate from ^32P-labeled substrate per min at 30° C.
Jurkat cells, a human transformed CD^4+ T cell line, were grown in grown in RPMI 1680 supplemented with 5% (v/v) fetal bovine serum at 37° C. in 95% air/5% CO2 in a humidified incubator. 2.4 liters of cells were collected by centrifugation at 4200 rpm in a low speed centrifuge for 10 minutes. The cells were homogenized in 80 ml of 50 mM Imidazole-Cl pH 7.2, 2 mM EGTA, 2 mM EDTA, 0.1% (v/v) 2-mercaptoethanol, 0.2 mM PMSF, 1 mM benzamidine, 4 μg/ml aprotinin, 4 μg/ml leupeptin, 4 μg/ml pepstatin, 0.1 mM TLCK, 0.1 mM TPCK, 1 mM sodium orthovanadate and 10% (v/v) glycerol by 40 strokes in a glass hand held homogenizer. The homogenate was centrifuged at 29000 rpm in a high speed centrifuge for 30 minutes. The supernatant (i.e the extract) was collected and loaded onto a DEAE Sepharose column (1.5×6 cm) equilibrated in 25 mM Imidazole-Cl pH 7.2, 0.2 mM EGTA, 0.1% (v/v) 2-mercaptoethanol, 0.1 mM PMSF, 1 mM benzamidine and 10% (v/v) glycerol (Buffer A). The column was washed with 50 ml of Buffer and then eluted with a 200 ml linear gradient of Buffer A to Buffer A plus 0.4 M NaCl. The eluted fractions were then assayed for phosphorylase phosphatase activity in the presence of 100 nM inhibitor-2 and 10 μg/ml of protamine. Two major peaks of phosphorylase phosphatase were observed. The first and second peak represent protein phosphatase-2A0 and protein phosphatase-2A1 respectively. […] The major activity eluting as a species of apparent molecular mass 300 kDa was collected, diluted four fold in Buffer A and loaded onto a poly-L-lysine Agarose Column (1.5×4 cm) equilibrated in Buffer A. The column was washed with 50 ml of Buffer A and then eluted with a 200 ml linear gradient of Buffer A to Buffer A plus 0.5 M NaCl. The active fractions eluting at ˜0.30 M NaCl salt concentration was pooled, concentrated by vacuum dialysis and stored at ^−20° C. in 50 mM Imidazole-Cl pH 7.2, 0.2 mM EGTA in the presence of 50% (v/v) glycerol. The highly purified enzyme consisted of the characteristic subunits of protein phosphatase-2A1, namely the A, B and C subunits. […] It is difficult to determine the activity of protein phosphatase-2A1 in CD^4+ T cell extract. However, assuming that it represented about 66 percent of total type 2A protein phosphatase activity in CD^4+ T cell extract, the specific activity of the enzyme in extract was estimated to be 0.3 unit/mg. […]

In a further assay the test system is protein phosphatase-2B. Briefly: Protein phosphatase-2B assay. The class given is biochemical, pig. The settings on record: various concentrations. As for the experimental part: as §1, §2

Chain of protein phosphatase-2A1 (P67775 whole entry): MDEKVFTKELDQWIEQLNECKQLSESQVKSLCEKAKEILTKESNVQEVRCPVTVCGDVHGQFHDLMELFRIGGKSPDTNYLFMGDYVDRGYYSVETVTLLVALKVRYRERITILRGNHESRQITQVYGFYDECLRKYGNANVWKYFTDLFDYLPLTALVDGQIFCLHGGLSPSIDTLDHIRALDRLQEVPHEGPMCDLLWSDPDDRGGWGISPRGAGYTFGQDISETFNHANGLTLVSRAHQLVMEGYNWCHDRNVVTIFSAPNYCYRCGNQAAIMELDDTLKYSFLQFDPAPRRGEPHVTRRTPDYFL
Chain of protein phosphatase-2A1 (P30153 whole entry partner): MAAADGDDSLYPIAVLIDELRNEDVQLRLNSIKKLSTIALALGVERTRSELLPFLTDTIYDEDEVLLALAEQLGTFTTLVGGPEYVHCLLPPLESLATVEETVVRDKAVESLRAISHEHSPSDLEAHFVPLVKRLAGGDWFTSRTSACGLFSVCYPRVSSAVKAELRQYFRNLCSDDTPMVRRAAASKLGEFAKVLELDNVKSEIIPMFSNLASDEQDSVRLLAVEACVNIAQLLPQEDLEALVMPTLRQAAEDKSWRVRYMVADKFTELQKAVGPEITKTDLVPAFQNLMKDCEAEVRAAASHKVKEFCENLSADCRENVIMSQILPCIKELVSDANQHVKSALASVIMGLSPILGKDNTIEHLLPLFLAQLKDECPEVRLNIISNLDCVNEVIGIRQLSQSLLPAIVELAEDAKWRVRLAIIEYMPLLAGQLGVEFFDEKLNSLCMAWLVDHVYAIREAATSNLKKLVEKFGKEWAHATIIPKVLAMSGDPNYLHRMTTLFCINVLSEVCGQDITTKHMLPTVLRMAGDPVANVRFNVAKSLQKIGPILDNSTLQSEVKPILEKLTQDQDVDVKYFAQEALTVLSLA
Chain of protein phosphatase-2A1 (P63151 whole entry partner): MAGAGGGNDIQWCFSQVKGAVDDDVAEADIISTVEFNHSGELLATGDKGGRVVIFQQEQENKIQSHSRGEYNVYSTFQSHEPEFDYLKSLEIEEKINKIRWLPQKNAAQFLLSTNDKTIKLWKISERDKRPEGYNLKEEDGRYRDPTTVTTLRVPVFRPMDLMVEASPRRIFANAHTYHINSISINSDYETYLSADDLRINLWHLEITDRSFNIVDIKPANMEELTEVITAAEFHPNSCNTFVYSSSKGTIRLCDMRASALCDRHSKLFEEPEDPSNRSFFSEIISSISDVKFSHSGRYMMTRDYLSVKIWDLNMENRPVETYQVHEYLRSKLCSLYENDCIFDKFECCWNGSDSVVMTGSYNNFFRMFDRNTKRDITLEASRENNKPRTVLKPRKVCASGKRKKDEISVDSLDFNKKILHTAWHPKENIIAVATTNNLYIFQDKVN
T1 sequence (P62139 whole entry): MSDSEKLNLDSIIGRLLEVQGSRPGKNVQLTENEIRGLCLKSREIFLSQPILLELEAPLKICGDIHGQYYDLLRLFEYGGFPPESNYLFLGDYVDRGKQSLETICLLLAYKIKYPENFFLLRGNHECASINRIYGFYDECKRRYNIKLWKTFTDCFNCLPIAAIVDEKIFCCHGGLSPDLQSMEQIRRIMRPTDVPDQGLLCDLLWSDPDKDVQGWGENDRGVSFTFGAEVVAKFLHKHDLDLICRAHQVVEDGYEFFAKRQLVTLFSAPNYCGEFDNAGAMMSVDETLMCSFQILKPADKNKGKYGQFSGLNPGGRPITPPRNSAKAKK

`CC[C@H](C)[C@H](NC(=O)[C@H](CCCNC(=N)N)NC(=O)[C@H](CO)NC(=O)[C@H](Cc1c[nH]cn1)NC(=O)[C@H](CCCNC(=N)N)NC(=O)[C@H](CS)NC(=O)CNC(=O)[C@@H](NC(=O)[C@H](CCCNC(=N)N)NC(=O)[C@H](Cc1ccccc1)NC(=O)[C@@H](N)Cc1c[nH]cn1)[C@@H](C)CC)C(=O)NCC(=O)N[C@H](C(=O)N[C@H](C(=O)N[C@@H](CCCNC(=N)N)C(=O)N[C@@H](CCC(N)=O)C(=O)N[C@@H](CCCNC(=N)N)C(=O)N[C@@H](CCCNC(=N)N)C(=O)N[C@@H](C)C(=O)N[C@@H](CCCNC(=N)N)C(=O)N[C@@H](CC(N)=O)C(=O)NCC(=O)N[C@@H](C)C(=O)N[C@@H](CO)C(=O)N[C@@H](CCCNC(=N)N)C(=O)N[C@@H](CO)C(=O)O)[C@@H](C)O)C(C)C` [SYRAPRO-2000]: the “effect on activity of protein phosphatase-1” value on protein phosphatase-1 is listed as “negligible effect”. On protein phosphatase-2A1, the “activation of protein phosphatase-2A1” value is 7 fold and the “concentration above which there was inhibition of protein phosphatase-2A1 (biphasic effect)” value is on record as “above 1000 nM”. For the same molecule, the EC50 on protein phosphatase-2A1 (read-out: half maximal activation of protein phosphatase-2A1) is around 0.3 µM. Further, the “effect on activity of protein phosphatase-2B” value in the assay with protein phosphatase-2B is “negligible effect”.
